Measurements: patent EP2208725A1, “Novel specific inhibitors of ubiquitin specific protease 7, the pharmaceutical compositions thereof and their therapeutic applications” (Hybrigenics S.A., priority 2009, dated 2010)

Target: T1, UCH-L1 (Homo sapiens, UniProt P09936)
T1 sequence (P09936 1-223): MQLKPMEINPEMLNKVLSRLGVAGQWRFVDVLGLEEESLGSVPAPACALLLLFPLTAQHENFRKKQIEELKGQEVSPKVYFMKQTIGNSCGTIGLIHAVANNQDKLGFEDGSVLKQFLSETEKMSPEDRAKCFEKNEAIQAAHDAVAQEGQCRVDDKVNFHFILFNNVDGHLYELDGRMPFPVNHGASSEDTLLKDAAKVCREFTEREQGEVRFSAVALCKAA
Experiment: UCH-L1 activity assay (Ub-AMC)
Format: biochemical
Conditions: 400 nM Ub-AMC, 2.5 nM enzyme; compounds tested from 200 µM to 91 nM; unit inferred; read-out: Inhibition of cysteine protease activities: Uch-L1
Method: UCH-L1 was diluted in USP buffer (50 mM Tris HCl; 0.5 mM EDTA; 5 mM DTT; 0.01% Triton X-100; Bovine Serum Albumin 0.05 mg.ml^-1 pH7.6). Compounds stocks (100 mM) were stored at -20°C in DMSO. Compounds were tested at different concentrations: from 200 µM to 91 nM. Reactions were performed as duplicates in Black LJL 96 well plates (HE microplates; Molecular Devices; 20 µl final reaction volume). The substrate concentration for UCH-L1 was 400 nM Ub-AMC (Boston Biochem). The concentration of the enzyme (UCH-L1) in specificity assays was 2.5 nM. The concentrations were determined in order to perform specificity assays under initial velocities at fixed substrate concentration. Compounds were pre-incubated with enzymes for 30 minutes at 25°C. Reactions were initiated by addition of substrate to the plates containing the enzymes (+/- compounds) diluted in assay buffer. Reactions were incubated for 60 minutes at 37°C. Reactions were stopped by adding acetic acid (100 mM final). Readings were performed on a Pherastar Fluorescent Reader (BMG). λ […]. Data (mean values +/- standard deviation) were analyzed as % of control (no compound) and plotted as percentage versus the Log of the compound concentration using GraphPad (Prism). Data were fitted to a sigmoidal model (variable slope).

| SMILES | IC50 |
| --- | --- |
| COc1cccc(CCN2C(=O)C(O)=C(C(C)=O)C2c2ccc(Br)cc2)c1 (stereo not shown) [Example 30, 4-acetyl-5-(4-bromo-phenyl)-3-hydroxy-1-[2-(3-methoxyphenyl)-ethyl]-1,5-dihydro-pyrrol-2-one] | > 200 µM |
| CC(=O)C1=C(O)C(=O)N(CCc2ccc(Br)cc2)C1c1ccc(Br)cc1 (stereo not shown) [Example 26, 4-acetyl-5-(4-bromo-phenyl)-1-[2-(4-bromo-phenyl)-ethyl]-3-hydroxy-1,5-dihydro-pyrrol-2-one] | > 200 µM |
| CC(=O)C1=C(O)C(=O)N(CCc2ccc(Cl)cc2)C1c1ccc(Br)cc1 (stereo not shown) [Example 25, 4-acetyl-5-(4-bromo-phenyl)-1-[2-(4-chloro-phenyl)-ethyl]-3-hydroxy-1,5-dihydro-pyrrol-2-one] | > 200 µM |
| CC(=O)C1=C(O)C(=O)N(CCc2ccc(Cl)cc2)C1c1ccc(Cl)cc1 (stereo not shown) [Example 46, 4-Acetyl-5-(4-chlorophenyl)-1-[2-(4-chlorophenyl)-ethyl]-3-hydroxy-1,5-dihydro-pyrrol-2-one] | > 200 µM |
| COc1ccc(CCN2C(=O)C(O)=C(C(C)=O)C2c2ccc(Br)cc2)cc1 (stereo not shown) [Example 32, 4-acetyl-5-(4-bromo-phenyl)-3-hydroxy-1-[2-(4-methoxyphenyl)-ethyl]-1,5-dihydro-pyrrol-2-one] | > 200 µM |
| CC(=O)C1=C(O)C(=O)N(CCc2ccccc2)C1c1ccc(Br)c(Br)c1 (stereo not shown) [Example 41, 4-acetyl-5-(3,4-dibromo-phenyl)-3-hydroxy-1-phenethyl-1,5-dihydro-pyrrol-2-one] | > 200 µM |

Now from value to compound:

| IC50 | SMILES |
| --- | --- |
| > 200 µM | CC(=O)C1=C(O)C(=O)N(CCc2ccc(Cl)cc2Cl)C1c1ccc(Br)cc1 (stereo not shown) [Example 47, 4-Acetyl-5-(4-bromophenyl)-1-[2-(2,4-dichlorophenyl)-ethyl]-3-hydroxy-1,5-dihydro-pyrrol-2-one] |
| > 200 µM | CC(=O)C1=C(O)C(=O)N(CCc2ccc(Cl)c(Cl)c2)C1c1ccc(Br)cc1 (stereo not shown) [Example 28, 4-acetyl-5-(4-bromo-phenyl)-1-[2-(3,4-dichloro-phenyl)-ethyl]-3-hydroxy-1,5-dihydro-pyrrol-2-one] |
| > 200 µM | CC(=O)C1=C(O)C(=O)N(CCc2ccc(F)cc2)C1c1ccc(Br)cc1 (stereo not shown) [Example 33, 4-acetyl-5-(4-bromo-phenyl)-3-hydroxy-1-[2-(4-fluorophenyl)-ethyl]-1,5-dihydro-pyrrol-2-one] |
| > 200 µM | CC(=O)C1=C(O)C(=O)N(CCc2ccccc2)C1c1ccc2c(c1)OCO2 (stereo not shown) [Example 37, 4-acetyl-5-benzo[1,3]dioxol-5-yl-3-hydroxy-1-phenethyl-1,5-dihydro-pyrrol-2-one] |
| > 200 µM | CC(=O)C1=C(O)C(=O)N(CCc2ccc(Br)cc2)C1c1ccc(Cl)cc1 (stereo not shown) [Example 45, 4-Acetyl-5-(4-chlorophenyl)-1-[2-(4-bromophenyl)-ethyl]-3-hydroxy-1,5-dihydro-pyrrol-2-one] |
| > 200 µM | CCOc1ccc(CCN2C(=O)C(O)=C(C(C)=O)C2c2ccc(Br)cc2)cc1 (stereo not shown) [Example 34, 4-acetyl-5-(4-bromo-phenyl)-3-hydroxy-1-[2-(4-ethoxy-phenyl)-ethyl]-1,5-dihydro-pyrrol-2-one] |
| > 200 µM | CC(=O)C1=C(O)C(=O)N(CCc2ccccc2)C1c1cccnc1Cl (stereo not shown) [Example 42, 4-acetyl-5-(2-chloro-pyridin-3-yl)-3-hydroxy-1-phenethyl-1,5-dihydro-pyrrol-2-one] |
